Experimental data published in PubChem BioAssay (NCI).
Values joined by “and” are separate entries in the source; they are usually repeats but may differ in a detail not shown here. Equal entries are not always repeated.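 Values below derive from 48-hour exposures of cells grown in 96-well plates, with endpoints linearly interpolated between the two concentrations bracketing the appropriate inhibition level. The concentration for 50% growth inhibition is given as GI50. At the TGI there is no net growth.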

How the values were obtained:
Assay in all cases: DTP human tumour cell line panel, 48 h
NCI/ADR-RES ovarian = system: NCI/ADR-RES ovarian
SN12C renal = system: SN12C renal
CAKI-1 renal = system: CAKI-1 renal
HT29 colon = system: HT29 colon
MOLT-4 leukemia = system: MOLT-4 leukemia
SW-620 colon = system: SW-620 colon
TK-10 renal = system: TK-10 renal
786-0 renal = system: 786-0 renal
RXF 393 renal = system: RXF 393 renal
A549 NSCLC = system: A549 NSCLC
SK-OV-3 ovarian = system: SK-OV-3 ovarian
NCI-H522 lung = system: NCI-H522 lung
SF-268 CNS = system: SF-268 CNS
HCT-15 colon = system: HCT-15 colon
HOP-62 NSCLC = system: HOP-62 NSCLC
NCI-H23 lung = system: NCI-H23 lung
UACC-62 melanoma = system: UACC-62 melanoma
MCF7 breast = system: MCF7 breast
K-562 leukemia = system: K-562 leukemia
COLO 205 colon = system: COLO 205 colon
HCT-116 colon = system: HCT-116 colon
OVCAR-4 ovarian = system: OVCAR-4 ovarian
HCC-2998 colon = system: HCC-2998 colon
IGROV1 ovarian = system: IGROV1 ovarian
SF-539 CNS = system: SF-539 CNS
SF-295 CNS = system: SF-295 CNS
T-47D breast = system: T-47D breast
SK-MEL-2 melanoma = system: SK-MEL-2 melanoma
CCRF-CEM leukemia = system: CCRF-CEM leukemia
PC-3 prostate = system: PC-3 prostate
SNB-75 CNS = system: SNB-75 CNS
M14 melanoma = system: M14 melanoma
SNB-19 CNS = system: SNB-19 CNS
HL-60(TB) leukemia = system: HL-60(TB) leukemia
UO-31 renal = system: UO-31 renal
U251 CNS = system: U251 CNS
BT-549 breast = system: BT-549 breast
MALME-3M melanoma = system: MALME-3M melanoma
DU-145 prostate = system: DU-145 prostate
NCI-H460 lung = system: NCI-H460 lung
HS 578T breast = system: HS 578T breast
KM12 colon = system: KM12 colon
SK-MEL-5 melanoma = system: SK-MEL-5 melanoma
OVCAR-5 ovarian = system: OVCAR-5 ovarian
HOP-92 NSCLC = system: HOP-92 NSCLC
OVCAR-8 ovarian = system: OVCAR-8 ovarian
LOX IMVI melanoma = system: LOX IMVI melanoma
OVCAR-3 ovarian = system: OVCAR-3 ovarian
ACHN renal = system: ACHN renal
EKVX NSCLC = system: EKVX NSCLC
A498 renal = system: A498 renal
UACC-257 melanoma = system: UACC-257 melanoma
RPMI-8226 leukemia = system: RPMI-8226 leukemia
NCI-H226 lung = system: NCI-H226 lung
SK-MEL-28 melanoma = system: SK-MEL-28 melanoma
MDA-MB-231 breast = system: MDA-MB-231 breast
MDA-MB-435 = system: MDA-MB-435
SR leukemia = system: SR leukemia

## COc1ccc(-c2ccc3ncc4c(c3c2)n(-c2ccc(N3CCNCC3)c(C(F)(F)F)c2)c(=O)n4C)cn1
NCI/ADR-RES ovarian
  GI50: 0.0531 µM and 0.0595 µM
  TGI: 1.27 µM and 0.712 µM
SN12C renal
  GI50: < 0.0112 µM and 0.00382 µM
  TGI: 1.56 µM and 0.381 µM
CAKI-1 renal
  GI50: 0.0179 µM and 0.0119 µM
  TGI: 0.884 µM and 0.118 µM
HT29 colon
  GI50: < 0.01 µM and 0.00658 µM
  TGI: 0.122 µM and 0.393 µM
MOLT-4 leukemia
  GI50: < 0.01 µM and 0.00654 µM
  TGI: 0.186 µM and 0.143 µM
SW-620 colon
  GI50: 0.0103 µM and 0.0117 µM
  TGI: 0.131 µM and 0.132 µM
TK-10 renal
  GI50: < 0.01 µM and 0.00865 µM
  TGI: 0.0379 µM and 0.109 µM
786-0 renal
  GI50: < 0.01 µM and 0.00325 µM
  TGI: 0.111 µM and 0.107 µM
RXF 393 renal
  GI50: < 0.01 µM and 0.0018 µM
  TGI: < 0.0323 µM and 0.00977 µM
A549 NSCLC
  GI50: < 0.01 µM and 0.00607 µM
  TGI: 0.153 µM and 0.329 µM
SK-OV-3 ovarian
  GI50: < 0.01 µM and 0.006 µM
  TGI: 0.0183 µM and 0.0462 µM
NCI-H522 lung
  GI50: < 0.01 µM and 0.00669 µM
  TGI: 1.07 µM and 0.379 µM
SF-268 CNS
  GI50: < 0.01 µM and 0.00867 µM
  TGI: 0.755 µM and 1.22 µM
HCT-15 colon
  GI50: < 0.0104 µM and 0.0127 µM
  TGI: 0.137 µM and 0.186 µM
HOP-62 NSCLC
  GI50: < 0.01 µM and 0.0119 µM
  TGI: 0.378 µM and 0.428 µM
NCI-H23 lung
  GI50: < 0.0131 µM and 0.0156 µM
  TGI: 0.424 µM and 0.439 µM
UACC-62 melanoma
  GI50: < 0.01 µM and 0.00599 µM
  TGI: 0.0269 µM and 0.0286 µM
MCF7 breast
  GI50: 0.0035 µM
  TGI: 0.0793 µM
K-562 leukemia
  GI50: 0.00843 µM
  TGI: 0.204 µM
COLO 205 colon
  GI50: < 0.01 µM and 0.00994 µM
HCT-116 colon
  GI50: < 0.0143 µM and 0.00853 µM
  TGI: 0.165 µM and 0.142 µM
OVCAR-4 ovarian
  GI50: < 0.01 µM and 0.0029 µM
  TGI: 0.0207 µM and 0.0252 µM
HCC-2998 colon
  GI50: < 0.01 µM and 0.00675 µM
  TGI: 1.34 µM and 0.269 µM
IGROV1 ovarian
  GI50: < 0.01 µM and 0.0016 µM
  TGI: 0.0332 µM and 0.0162 µM
SF-539 CNS
  GI50: < 0.011 µM and 0.0132 µM
  TGI: 0.0606 µM and 0.0587 µM
SF-295 CNS
  GI50: < 0.01 µM and 0.00331 µM
  TGI: 0.0284 µM and 0.032 µM
T-47D breast
  GI50: < 0.01 µM and 0.00189 µM
  TGI: < 0.01 µM and 0.021 µM
SK-MEL-2 melanoma
  GI50: < 0.01 µM and 0.0101 µM
  TGI: 0.0369 µM and 0.044 µM
CCRF-CEM leukemia
  GI50: < 0.01 µM and 0.00664 µM
  TGI: 0.282 µM and 0.144 µM
PC-3 prostate
  GI50: < 0.01 µM and 0.00281 µM
  TGI: 0.799 µM and 1.12 µM
SNB-75 CNS
  GI50: < 0.01 µM and 0.00263 µM
  TGI: 0.0129 µM and 0.0255 µM
M14 melanoma
  GI50: 0.00455 µM
  TGI: 0.0621 µM
SNB-19 CNS
  GI50: < 0.01 µM and 0.00778 µM
  TGI: 1.2 µM and 0.254 µM
HL-60(TB) leukemia
  GI50: 0.0143 µM
  TGI: 0.113 µM
UO-31 renal
  GI50: < 0.01 µM and 0.00417 µM
  TGI: 0.196 µM and 0.0269 µM
U251 CNS
  GI50: < 0.01 µM and 0.00869 µM
  TGI: 0.13 µM and 0.429 µM
BT-549 breast
  GI50: < 0.01 µM and 0.00552 µM
  TGI: 0.0556 µM and 0.0647 µM
MALME-3M melanoma
  GI50: < 0.01 µM and 0.00404 µM
  TGI: 0.03 µM and 0.0353 µM
DU-145 prostate
  GI50: < 0.01 µM and 0.00475 µM
  TGI: 0.686 µM and 0.433 µM
NCI-H460 lung
  GI50: < 0.01 µM and 0.00389 µM
  TGI: 0.223 µM and 0.141 µM
HS 578T breast
  GI50: < 0.01 µM and 0.00197 µM
  TGI: 0.0181 µM and 0.013 µM
KM12 colon
  GI50: < 0.01 µM and 0.0117 µM
  TGI: 0.694 µM and 0.406 µM
SK-MEL-5 melanoma
  GI50: 0.0131 µM and 0.0102 µM
  TGI: 0.0774 µM and 0.038 µM
OVCAR-5 ovarian
  GI50: < 0.0115 µM and 0.00752 µM
HOP-92 NSCLC
  GI50: < 0.01 µM and 0.00146 µM
  TGI: 0.0219 µM and 0.0155 µM
OVCAR-8 ovarian
  GI50: < 0.01 µM and 0.00948 µM
  TGI: 0.332 µM and 0.396 µM
LOX IMVI melanoma
  GI50: < 0.01 µM and 0.00403 µM
  TGI: 0.359 µM and 0.0882 µM
OVCAR-3 ovarian
  GI50: < 0.01 µM and 0.00596 µM
  TGI: 0.341 µM and 0.497 µM
ACHN renal
  GI50: < 0.01 µM and 0.00959 µM
  TGI: 1.1 µM and 0.782 µM
EKVX NSCLC
  GI50: < 0.01 µM and 0.00426 µM
  TGI: 0.0379 µM and 0.258 µM
A498 renal
  GI50: < 0.01 µM and 0.00224 µM
  TGI: < 0.01 µM and 0.012 µM
UACC-257 melanoma
  GI50: 0.0169 µM and 0.021 µM
  TGI: 0.11 µM and 0.118 µM
RPMI-8226 leukemia
  GI50: < 0.01 µM and 0.00374 µM
  TGI: 0.163 µM and 0.0549 µM
NCI-H226 lung
  GI50: 0.00858 µM
  TGI: 0.116 µM
SK-MEL-28 melanoma
  GI50: < 0.01 µM and 0.00679 µM
  TGI: 0.101 µM and 0.0648 µM
MDA-MB-231 breast
  GI50: < 0.01 µM and 0.00601 µM
  TGI: 0.823 µM and 0.446 µM
MDA-MB-435
  GI50: < 0.01 µM and 0.00272 µM
  TGI: 0.0732 µM and 0.106 µM
SR leukemia
  GI50: 0.02 µM and 0.00681 µM
  TGI: 0.266 µM and 0.365 µM
